Assay [1] relates to HeLa. Description: Cytotoxicity against human HeLa cells after 48 hrs by sulforhodamine B assay. It is filed as functional, cell-based. On the technique in general: Sulforhodamine B stains cellular protein and so reports cell mass.
In assay [2] the test system is PC-3. Description: Cytotoxicity against human PC3 cells after 48 hrs by sulforhodamine B assay. It is filed as functional, cell-based. The note with it: PC-3, 48 h.
In assay [3] the test system is MDA-MB-435. Description: Cytotoxicity against human MDA-MB-435 cells after 48 hrs by sulforhodamine B assay. It is filed as functional, cell-based. The note with it: MDA-MB-435, 48 h.
In assay [4] the test system is MDA-MB-231. As to the kind of experiment: Cytotoxicity against human MDA-MB-231 cells after 48 hrs by sulforhodamine B assay. It is filed as functional, cell-based. The note with it: MDA-MB-231, 48 h.
Assay [5] relates to HeLa. As to the kind of experiment: Inhibition of beta-tubulin assembly in human HeLa cells assessed as effect on microtubule density up to 40 uM after 18 hrs by immunofluorescence assay. It is filed as cell-based.
For assay [6], the system named is HeLa. As to the kind of experiment: Inhibition of beta-tubulin assembly in human HeLa cells assessed as effect on microtubule density at 5 uM after 18 hrs by immunofluorescence assay. It is filed as cell-based.

pIC50: −log10 of the molar value. The source made the active and inactive calls. The rule behind the calls is not given here.

With `COC1=CC(=O)C(CCC(=O)c2ccc(OC)c(OC)c2)=C(OC)C1=O` [EVELYNIN], the pIC50 – broadly, the negative decadic logarithm of the IC50, by convention in mol/L – is 5.20 in assay [1], 5.33 in assay [2], 5.39 in assay [3] and 5.41 in assay [4]. The inhibition result in assay [5] and in assay [6] was “inactive” in each case.

The record behind these values is ChEMBL document CHEMBL1221365, “Evelynin, a cytotoxic benzoquinone-type Retro-dihydrochalcone from Tacca chantrieri” (J Nat Prod, 2010).
